The term IC50 denotes the midpoint of a concentration-inhibition curve. Read a high IC50 as weaker potency.

Structures are written as SMILES. “Also recorded” adds a separate entry of the source.

The source of these data is PMC7180452, “Purine and Purine Isostere Derivatives of Ferrocene: An Evaluation of ADME, Antitumor and Electrochemical Properties” (Molecules, 2020).

The subject of data set [1] is metastatic colorectal adenocarcinoma (SW620). Kind of data set: In vitro antiproliferative activity, SW620. It counts as cell-based, human. To be noted: SW620 cells. As for the experimental part: (§1) Antiproliferative activity of compounds 11a−11c, 12a−12c, 13a−13c, 14a−14c, 15a−15c, 16a, 23a−23c, 24a−24c, 25a−25c, 34a−34c and 35a−35c was evaluated in vitro on four human tumor cell lines (American Type Culture Collection, Manassas, VA, USA): metastatic colorectal adenocarcinoma (SW620), ductal pancreatic adenocarcinoma (CFPAC-1), hepatocellular carcinoma (HepG2) and cervical carcinoma (HeLa) as well as normal skin fibroblasts (HFF).

Data set [2] deals with normal skin fibroblasts (HFF). Briefly: Cytotoxicity on non-tumor cells, HFF. It counts as cell-based, human. Here is the method: as §1
Data set [3] concerns cervical carcinoma (HeLa). Kind of data set: In vitro antiproliferative activity, HeLa. The format is cell-based, human. To be noted: HeLa cells. As for the experimental part:
as §1

For data set [4], the system named is MDCKII-hMDR1 cells. Briefly: Permeability and P-gp substrate assessment in MDCKII-hMDR1 cell monolayer. It counts as in vitro ADME, canine. To be noted: for Permeability classification: MDCKII-hMDR1, in words; for Efflux Ratio (BA/AB) / Papp (AB) / Papp (BA): without P-gp inhibitor; for Papp (AB) / Papp (BA): 10 µM, 60 min. Here is the method: The Madin-Darby canine kidney cells with overexpressed human multidrug-resistant gene (MDCKII-hMDR1) have been frequently used to study bidirectional transport of compounds and assess P-gp substrate potential. Apparent permeability (Papp) values were determined from the amount permeated through the MDCKII-hMDR1 cell monolayer in both the apical-basolateral (AB) and basolateral-apical (BA) direction.
MDCKII-hMDR1 cell monolayer was used for determination of permeability and P-gp substrate assessment. MDCKII-hMDR1 cells (Solvo Biotechnology, Szeged, Hungary) were grown in the controlled atmosphere (37 °C, 95% humidity, 5% CO2) in MDCK cell culture medium containing Dulbecco’s Modified Eagle Medium (DMEM) + 10% Fetal bovine serum (FBS, inactivated) + 1% glutamax-100 + 1% antibiotic/antimycotic + 1% of Non-essential amino acids Minimum Essential Medium (MEM NEAA). Cultures were split every 3–4 days using 0.05% Trypsin-EDTA. Cells were seeded 4 days prior to the experiment in concentration of 0.3 × 10^6 cells mL^−1 and cultured in CO2 incubator. On the experiment day, cell monolayers were washed with Dulbecco’s phosphate buffer saline (D-PBS) and equilibrated for 45 min in CO2 incubator in D-PBS containing 1% DMSO (1% v/v) with or without Elacridar (2 µM). Compounds, in final concentration of 10 µM, were prepared in transport medium containing Lucifer yellow (100 µM), with DMSO contentment of 1% (v/v) and in the presence and without Elacridar. Lucifer yellow calibration curve was prepared by serial dilution (12 points, with 100 µM as the highest point). Monolayer integrity was examined by fluorescent measurement on a Microplate reader Infinite F500 (Tecan) by using an excitation of 485 nm and emission of 530 nm. Experiment was started by applying the solutions containing test compounds to apical and basolateral side of the cell monolayer. Starting compound concentration (C0) was sampled at the start of the experiment and apical and basolateral compartments were sampled after incubation at 37 °C with gentle shaking for 60 min. Compound were tested in duplicate. Amprenavir was used as a control with low permeability and as a P-gp substrate without inhibitor presence, turning into a highly permeable compound with the inhibitor present.
Samples were analyzed on an ABSciex API 4000 Triple Quadrupole Mass Spectrometer (Sciex, Division of MDS Inc., Toronto, ON, Canada) coupled to a UHPLC Nexera X2 (Shimadzu, Kyoto, Japan). Samples (1 µL) were injected onto a reversed phase HPLC column Luna Omega Polar C18, 30 × 2.1 mm i.d., 1.6 µm particle size (Phenomenex) which was kept at 50 °C. Aqueous solution was 0.1% formic acid in deionized water and the organic mobile phase was […]. Flow rate was kept at 0.7 mL min^−1 for all measurements. Fast-gradient elution was as follows: 2% of organic mobile phase through 0.15 min, from 2 to 95% of organic mobile phase (0.15−0.7 min), 95% of organic mobile phase (0.7−1.1 min), from 95 to 2% of organic mobile phase (1.1−1.11 min), and re-equilibration with 98% of aqueous mobile phase (1.11−1.5 min). Positive ion mode with turbo spray, an ion source temperature of 550 °C and a dwell time of 75 ms were utilized for mass spectrometric detection. Quantitation was performed using multiple reaction monitoring (MRM) at the specific transition corresponding to the compound of interest. Warfarin was used as an internal standard. The ratios between compound and internal standard peak areas were used instead of real compound concentration. Apparent permeability coefficient, Papp (nm s^−1) values were calculated by using the following Equation (1):Papp [nm s^−1] = (dQ/dT) × (1/C0) × (1/A)(1) where: dQ/dT = permeability rate; C0 = initial concentration in donor compartment; A = surface area of the cell monolayer (0.7 cm^2). […]

The nature of data set [5]: Metabolic stability in human liver microsomes. It counts as in vitro ADME. To be noted: for t1/2: 1 µM; for In Vivo CLh / In Vivo CLh (% LBF): human; for In Vivo CLh: predicted in vivo hepatic clearance; for In Vivo CLh (% LBF): predicted, % of liver blood flow. As for the experimental part: Metabolic stability of compounds was assessed in human and mouse liver microsomes (Corning, Tewksbury, MA, USA). Compounds, in final concentration of 1 µM, were incubated in phosphate buffer (50 mM, pH 7.4) for 60 min at 37 °C together with liver microsomes and NADPH generating system (nicotinamide adenine dinucleotide phosphate (NADP, 0.5 mM), glucose-6-phosphate (G6P, 5 mM), glucose-6-phosphate dehydrogenase (1.5 U mL^−1) and magnesium chloride (0.5 mM)). Also, compounds were incubated without the presence of NADPH cofactor, as a buffer stability control. Metabolic activity of liver microsomes was verified by including testosterone and propranolol as positive controls, as well as caffeine as a negative control. Sampling was performed at six time points (0, 10, 20, 30, 45 and 60 min), followed by reaction termination by addition of acetonitrile/methanol mixture (2:1, v/v) containing dicofenac as internal standard. Samples were analyzed as previously described for samples from permeability assay. The in vitro half-life (t1/2) was calculated from the slope of the linear regression by plotting ln % remaining of parent compound against incubation time. In vitro intrinsic clearance, CLint was calculated from half-life using following Equation (3):(3) CLint [µL min^−1 mg^−1]=ln2/t1/2×mL per incubation/mg protein per incubation where 52.5 mg protein/g liver is used as a constant.
Predicted in vivo hepatic clearance, in vivo CLh was calculated as follows:(4) in vivo CLh [mL min^−1 kg^−1]=CLint×(mg protein/g liver)×Q×(LW/BW) /Q+(CLint×(mg protein/g liver)×(LW/BW)) where: LW/BW = liver weight/body weight [g kg^−1]; 25.7 (human), 87.5 (mouse); Q = LBF = liver blood flow [mL min^−1 kg^−1]; 21/1.26 (human), 131/7.86 (mouse).
Predicted in vivo hepatic clearance can be expressed as %LBF and calculated as follows:(5) in vivo CLh [%LBF]=in vivo CLh/LBF×100

`CC([c-]1cccc1)n1cc(Cn2cnc3ncnc(Cl)c32)nn1.[Fe+2].c1cc[cH-]c1` (stereo not shown) [Compound 15b, 6-Chloro-7-[1-(1-ferrocenyl-1-methylmethyl-1,2,3-triazol-4-yl)methyl]-7H-purine]: the IC50 in data set [1] came to 15.5 ± 3.24 µM. Also, the IC50 in data set [2] worked out at 0.88 ± 1.06 µM. The compound further came in with an IC50 in data set [3] of 28.97 ± 0.09 µM. Further, in data set [4], the Permeability classification result is listed as “moderate AB permeability”, the “Efflux Ratio (BA/AB)” value came to 10.7, the “Papp (AB)” value worked out at 3.2e-06 cm/s and the “Papp (BA)” value was 3.32e-05 cm/s. Also, in data set [5] (human liver microsomes), the t1/2 worked out at 19.0 min. Further, in data set [5], the “In Vivo CLh” value is 20.4 mL/min/kg and the “In Vivo CLh (% LBF)” value was 79 % LBF.

In data set [1], `Clc1ncnc2c1ncn2Cc1cn(C[c-]2cccc2)nn1.[Fe+2].c1cc[cH-]c1` [Compound 13a, 6-Chloro-9-[1-(1-ferrocenymethyl-1,2,3-triazol-4-yl)methyl]-9H-purine] yielded an IC50 of 14.4 ± 3.02 µM. The compound further came in with an IC50 in data set [2] of 3.98 ± 0.17 µM. For the same compound, the IC50 in data set [3] is 25.2 ± 4.31 µM. In data set [4], the Permeability classification entry is reported as “moderate to high AB permeability; also recorded: good permeability”, the “Efflux Ratio (BA/AB)” value is listed as 2.9, the “Papp (AB)” value is 8.3e-06 cm/s and the “Papp (BA)” value is 2.38e-05 cm/s. This compound registered a t1/2 in data set [5] (human liver microsomes) of 38.6 min. In data set [5] (human liver microsomes, in words), the Metabolic stability classification entry is “good metabolic stability; also recorded: moderately stable; also recorded: moderate stability”. In data set [5], the “In Vivo CLh” value is 16.8 mL/min/kg and the “In Vivo CLh (% LBF)” value is reported as 65 % LBF.

The compound `Clc1ncnc2c1ccn2Cc1cn(-[c-]2cccc2)nn1.[Fe+2].c1cc[cH-]c1` [Compound 11c, 4-Chloro-7-[1-(1-ferrocenyl-1,2,3-triazol-1-yl)methyl]-7H-pyrrolo[2,3-d]pyrimidine] came in with an IC50 in data set [1] of 9.07 ± 1.21 µM. In data set [2], this compound had an IC50 of 5.89 ± 1.88 µM. Besides, the IC50 in data set [3] stood at 27.7 ± 3.23 µM. Besides, in data set [4], the Permeability classification entry is on record as “moderate AB permeability”, the “Efflux Ratio (BA/AB)” value turned out to be 2.9, the “Papp (AB)” value came out at 5.3e-06 cm/s and the “Papp (BA)” value came out at 1.49e-05 cm/s. Also, in data set [5] (human liver microsomes), the t1/2 worked out at 4.1 min. In data set [5], the “In Vivo CLh” value was 24.3 mL/min/kg and the “In Vivo CLh (% LBF)” value is given as 95 % LBF.
